Measured values: patent US9597292B2, “Oral dosage forms of methyl hydrogen fumarate and prodrugs thereof” (XenoPort, Inc., priority 2012, dated 2017)

Columns and labels:
Format in all cases: in vivo, human
[1] = Single-dose food effect pharmacokinetic study in healthy adult subjects (Example 8); conditions: promoiety after oral dosing of Example 2 formulation
Source text: (§1) Twenty-four healthy adult volunteers (males and females) participated in the study. Twelve of the subjects received a dosage form of Example 1, once in a fed condition and once in a fasted condition, with a two-week washout between treatments. Twelve other subjects received a dosage form of Example 2, once in a fed condition and once in a fasted condition, with a two-week washout between treatments. The fasted dosing was achieved by dosing the subject following an overnight fast while the fed dosing was achieved by dosing the subject after consuming a high fat-content breakfast.
(§2) Urine samples were collected from all subjects prior to dosing, and complete urine output was obtained at the 0-4, 4-8, 8-12, 12-24, 24-36, 36-48, 48-72, 72-96 and 96-120 hour intervals after dosing. Blood samples were quenched immediately with acetonitrile and frozen.

[2] = Single-dose food effect pharmacokinetic study of sustained release dosage form in healthy adult subjects (Example 15); conditions: promoiety after oral dosing of the formulation
Source text: (§3) Twelve healthy adult volunteers (males and females) participated in the study. All twelve subjects received a dosage form of Example 9, once in a fed condition and once in a fasted condition, with a two-week washout between treatments. The fasted dosing was achieved by dosing the subject following an overnight fast while the fed dosing was achieved by dosing the subject after consuming a high fat-content breakfast.
as §2

[3] = Safety and tolerability, adverse events in single-dose food effect study (Example 8); conditions: for Feeling Hot (subjects reporting) / Flushing (subjects reporting): 12 subjects
Source text: as §1

[4] = Safety and tolerability, adverse events in single-dose food effect study (Example 15); conditions: for Feeling Hot (subjects reporting) / Flushing (subjects reporting): 12 subjects
Source text: as §3

[5] = single 200 mg oral dose, fed and fasted

**Q.** Which results are given for `CCN(CC)C(=O)CO` [Promoiety]?
**A.** half life of clearance from blood [1]: around 3 hours; half life of clearance from blood [2]: around 3 hours

**Q.** With `CCN(CC)C(=O)COC(=O)/C=C/C(=O)OC` [(N,N-Diethylcarbamoyl)methyl methyl (2E)but-2-ene-1,4-dioate] as the compound, how does the “Feeling Hot (subjects reporting)” value ([3]; Fasted) read?
**A.** Its value is “no subjects”.

**Q.** What about the “Flushing (subjects reporting)” value ([3]; Fasted) of the same compound?
**A.** The value was “No subjects”.

**Q.** What about the “Feeling Hot (subjects reporting)” value ([3]; Fed) of the same compound?
**A.** Its value is “no subjects”.

**Q.** What about the “Flushing (subjects reporting)” value ([3]; Fed) of the same compound?
**A.** Its value is “One”.

**Q.** What about the “tolerability during the trial” value [3, 5] of the same compound?
**A.** Its value is “well tolerated”.

**Q.** What about the “Feeling Hot (subjects reporting)” value ([4]; Fasted) of the same compound?
**A.** The value was “no subjects”.

**Q.** What about the “Flushing (subjects reporting)” value ([4]; Fasted) of the same compound?
**A.** Its value is “No subjects”.

**Q.** What about the “Feeling Hot (subjects reporting)” value ([4]; Fed) of the same compound?
**A.** Its value is “no subjects”.

**Q.** What about the “Flushing (subjects reporting)” value ([4]; Fed) of the same compound?
**A.** The value was “Two”.

**Q.** What about the “tolerability during the trial” value [4, 5] of the same compound?
**A.** The value was “well tolerated”.
